Assay results as given in ChEMBL document CHEMBL3885861, “Open TG-GATES”.

Organism: Rattus norvegicus
Assay: Open TG-GATES - Regimen: Single
Type: toxicity, organism-based, Sprague-Dawley
Design: regimen Single, gender Male, age 6 weeks
Details: in vivo, po, 400 mg/kg, route gavage, dose level High; for APTT / Bas / Eos / Fbg / Hb / Ht / Lym / MCH / MCHC / MCV / Mono / Neu / PT / Plat / RBC / Ret / WBC: tissue Blood; for KIDNEY_L / KIDNEY_R / KIDNEY_TOTAL: tissue Kidney; for LIVER: tissue Liver; for A/G / ALP / ALT / AST / BUN / CRE / Ca / Cl / DBIL / GLC / IP / K / LDH / Na / PL / RALB / TBIL / TC / TG / TP / gamma-GTP: tissue Plasma

SMILES: COc1ccc(Cc2nccc3cc(OC)c(OC)cc23)cc1OC [PAPAVERINE]
- TERMINAL_BW (3 h): 228.2 g
- APTT (3 h): 23.4 s
- Bas (3 h): 0%
- Eos (3 h): 1%
- Fbg (3 h): 306.8 mg/dL
- Hb (3 h): 13.4 g/dL
- Ht (3 h): 40.3%
- Lym (3 h): 79%
- MCH (3 h): 20.7 pg
- MCHC (3 h): 33.3%
- MCV (3 h): 62 fL
- Mono (3 h): 2.4%
- Neu (3 h): 16.2%
- PT (3 h): 15.7 s
- Plat (3 h): 119 x10_4/uL
- RBC (3 h): 649.8 x10_4/ul
- Ret (3 h): 7.4%
- WBC (3 h): 64.1 x10_2/uL
- KIDNEY_L (3 h): 1 g
- KIDNEY_R (3 h): 1 g
- KIDNEY_TOTAL (3 h): 2 g
- LIVER (3 h): 9.9 g
- A/G (3 h): 1.2
- ALP (3 h): 1181 IU/L
- ALT (3 h): 39 IU/L
- AST (3 h): 66.8 IU/L
- BUN (3 h): 11.4 mg/dL
- CRE (3 h): 0.1 mg/dL
- Ca (3 h): 10.8 mg/dL
- Cl (3 h): 107.2 meq/L
- DBIL (3 h): 0 mg/dL
- GLC (3 h): 199.4 mg/dL
- IP (3 h): 9.7 mg/dL
- K (3 h): 4.1 meq/L
- LDH (3 h): 182 IU/L
- Na (3 h): 140.2 meq/L
- PL (3 h): 124 mg/dL
- RALB (3 h): 2.9 g/dL
- TBIL (3 h): 0.014 mg/dL
- TC (3 h): 75.2 mg/dL
- TG (3 h): 34 mg/dL
- TP (3 h): 5.4 g/dL
- gamma-GTP (3 h): 2.4 IU/L
- TERMINAL_BW (6 h): 223.8 g
- APTT (6 h): 22 s
- Bas (6 h): 0%
- Eos (6 h): 0.8%
- Fbg (6 h): 310.8 mg/dL
- Hb (6 h): 13.1 g/dL
- Ht (6 h): 40%
- Lym (6 h): 78%
- MCH (6 h): 20.6 pg
- MCHC (6 h): 32.9%
- MCV (6 h): 62.7 fL
- Mono (6 h): 3.6%
- Neu (6 h): 16.6%
- PT (6 h): 16 s
- Plat (6 h): 119.2 x10_4/uL
- RBC (6 h): 639 x10_4/ul
- Ret (6 h): 7.8%
- WBC (6 h): 84 x10_2/uL
- KIDNEY_L (6 h): 1 g
- KIDNEY_R (6 h): 1 g
- KIDNEY_TOTAL (6 h): 1.9 g
- LIVER (6 h): 9.2 g
- A/G (6 h): 1.2
- ALP (6 h): 1322.6 IU/L
- ALT (6 h): 36 IU/L
- AST (6 h): 73.6 IU/L
- BUN (6 h): 7.6 mg/dL
- CRE (6 h): 0.1 mg/dL
- Ca (6 h): 11.2 mg/dL
- Cl (6 h): 107.4 meq/L
- DBIL (6 h): 0.006 mg/dL
- GLC (6 h): 178.4 mg/dL
- IP (6 h): 10.2 mg/dL
- K (6 h): 4.3 meq/L
- LDH (6 h): 151.4 IU/L
- Na (6 h): 140.6 meq/L
- PL (6 h): 125.2 mg/dL
- RALB (6 h): 2.9 g/dL
- TBIL (6 h): 0.036 mg/dL
- TC (6 h): 75 mg/dL
- TG (6 h): 38.4 mg/dL
- TP (6 h): 5.3 g/dL
- gamma-GTP (6 h): 2 IU/L
- TERMINAL_BW (9 h): 221.7 g
- APTT (9 h): 23 s
- Bas (9 h): 0%
- Eos (9 h): 0.8%
- Fbg (9 h): 313.2 mg/dL
- Hb (9 h): 13.5 g/dL
- Ht (9 h): 40.5%
- Lym (9 h): 75%
- MCH (9 h): 20.8 pg
- MCHC (9 h): 33.3%
- MCV (9 h): 62.5 fL
- Mono (9 h): 2.2%
- Neu (9 h): 21%
- PT (9 h): 16.2 s
- Plat (9 h): 120.5 x10_4/uL
- RBC (9 h): 648.2 x10_4/ul
- Ret (9 h): 7.3%
- WBC (9 h): 73.1 x10_2/uL
- KIDNEY_L (9 h): 1 g
- KIDNEY_R (9 h): 1 g
- KIDNEY_TOTAL (9 h): 2 g
- LIVER (9 h): 8.5 g
- A/G (9 h): 1.3
- ALP (9 h): 1235.8 IU/L
- ALT (9 h): 26.8 IU/L
- AST (9 h): 64 IU/L
- BUN (9 h): 7.8 mg/dL
- CRE (9 h): 0.1 mg/dL
- Ca (9 h): 10.9 mg/dL
- Cl (9 h): 108.6 meq/L
- DBIL (9 h): 0.008 mg/dL
- GLC (9 h): 180.2 mg/dL
- IP (9 h): 9.5 mg/dL
- K (9 h): 4.3 meq/L
- LDH (9 h): 160 IU/L
- Na (9 h): 139.8 meq/L
- PL (9 h): 123.2 mg/dL
- RALB (9 h): 2.9 g/dL
- TBIL (9 h): 0.036 mg/dL
- TC (9 h): 68.2 mg/dL
- TG (9 h): 33.4 mg/dL
- TP (9 h): 5.3 g/dL
- gamma-GTP (9 h): 1.6 IU/L
- TERMINAL_BW (24 h): 240 g
- APTT (24 h): 21.2 s
- Bas (24 h): 0%
- Eos (24 h): 0.8%
- Fbg (24 h): 339.6 mg/dL
- Hb (24 h): 13 g/dL
- Ht (24 h): 39%
- Lym (24 h): 78.2%
- MCH (24 h): 20.8 pg
- MCHC (24 h): 33.4%
- MCV (24 h): 62.1 fL
- Mono (24 h): 2.6%
- Neu (24 h): 17.2%
- PT (24 h): 15.7 s
- Plat (24 h): 113.2 x10_4/uL
- RBC (24 h): 627.8 x10_4/ul
- Ret (24 h): 6.6%
- WBC (24 h): 86.7 x10_2/uL
- KIDNEY_L (24 h): 1 g
- KIDNEY_R (24 h): 1 g
- KIDNEY_TOTAL (24 h): 2 g
- LIVER (24 h): 11.4 g
- A/G (24 h): 1.3
- ALP (24 h): 1398.4 IU/L
- ALT (24 h): 41.2 IU/L
- AST (24 h): 66.6 IU/L
- BUN (24 h): 14 mg/dL
- CRE (24 h): 0.1 mg/dL
- Ca (24 h): 10.9 mg/dL
- Cl (24 h): 106 meq/L
- DBIL (24 h): 0 mg/dL
- GLC (24 h): 186.8 mg/dL
- IP (24 h): 7.5 mg/dL
- K (24 h): 4 meq/L
- LDH (24 h): 153.2 IU/L
- Na (24 h): 143.4 meq/L
- PL (24 h): 149.8 mg/dL
- RALB (24 h): 3.1 g/dL
- TBIL (24 h): 0.008 mg/dL
- TC (24 h): 82 mg/dL
- TG (24 h): 125.8 mg/dL
- TP (24 h): 5.4 g/dL
- gamma-GTP (24 h): 2 IU/L
